From patent publication US11160807B1, “Methods, compositions and devices for treating cancer with illudofulvenes” (AF Chemicals, LLC, priority 2018, dated 2021)

Columns and labels:
[1] = test system: NCI DTP 60 cell line panel; experiment: NCI DTP 60 Cell Line screen: Growth Inhibition (GI50), Total Growth Inhibition (TGI), Lethal Concentration (LC50/LD); type: cell-based, human; conditions: mean over NCI DTP 60 cell line panel; for GI50: growth inhibition; for Mean LD50 cytotoxic: lethal concentration dose (cytotoxic effect); for Mean TGI cytostatic: total growth inhibition (cytostatic effect)
Protocol: In particular, an algorithm based on the obtained in vitro cell culture values (i.e. growth inhibition values (GI50), or the total growth inhibition (TGI), or the lethal concentration (LC50)) of cell lines (e.g., NCI60 cells) subjected to treatment with an illudofulvene, and gene expression is determined in these same cell lines (e.g., by microarray analysis, reverse transcriptase polymerase chain reaction (RT-PCR), quantitative real-time PCR (qPCR), or next generation sequencing). After normalization, genes with, e.g., a Pearson correlation coefficient greater than about 0.5 or below about −0.5 to one of the obtained in vitro cell culture values, can be classified as biomarkers of sensitivity or resistance, respectively. A probability or significance value can also be calculated for the correlation between the obtained in vitro cell culture values (i.e. growth inhibition values (GI50), or the total growth inhibition (TGI), or the lethal concentration (LC50)) and the normalized expression of a specific gene.
One can determine the growth inhibition (GI50), total growth inhibition (TGI), or lethal concentration (LC50) for a drug for each of the cell lines in the NCI DTP 60 cell line panel. One can use these 3 values to search for correlations against all gene expressions in all cell lines using the NCI's publicly available CELL MINER Software. Alternatively, one can down load for a specific gene its relative expression in each of the 60 cell lines using the NCI's publicly available COMPARE Software, and performs the expression for a specific gene.

MV522 Target Cell Line = experiment: 48 hour exposure, growth or viability by Trypan Blue Exclusion assay; type: cell-based; conditions: MV522, 48 h, read-out: Mean IC50 value, MV522 Target Cell Line, 48 hr exposure
Protocol: (§1) In various embodiments of the invention, the MV522 cell line represents a “target” cell line. […] The two hour toxicity data represents the concentration of a given analog for which a two hour exposure will inhibit 50% of the DNA synthesis activity in a given cell line. The 48 hour exposure data represents the concentration at which a given analog with a 48 hour exposure will inhibit the growth or viability in a given cell line as defined by the standard Trypan Blue Exclusion assay.

[2] = test system: NIH3T3 MYC+ and NIH3T3 MYC-null; experiment: influence of c-myc expression on cytotoxicity, Cell Count (%); conditions: for effect of c-myc (MYC) expression on cellular sensitivity: FIG. 4A-4D, cisplatin data not shown
MCF7 (ER positive) = experiment: cytotoxic IC50, 2 hour exposure; conditions: Homo sapiens, MCF7, 2 h, read-out: cytotoxic IC50 values, MCF7 (ER positive)
[3] = test system: 8392B Nontarget Cell Line; experiment: two hour toxicity: 2 hr exposure, concentration inhibiting 50% of DNA synthesis activity; type: cell-based; conditions: at 26,000 nM ([…] μM)
Protocol: as §1

[4] = test system: c-myc positive daughter line Myc/Rat1A (Myc/ER); experiment: role of c-myc in cytotoxicity, c-myc expression induced by 4-hydroxytamoxifen (4HOT); type: cell-based; conditions: FIG. 2
Source text: The expression of c-myc in this cell line is under the control of a modified receptor that responds to 4-hydroxytamoxifen (4HOT).

[5] = test system: MV522 cell line (a lung-derived adenocarcinoma cell line); experiment: tumor regression (FIG. 1); type: in vivo; conditions: MV522, FIG. 1
[6] = test system: XP-A, XP-B, XP-C, XP-D, XP-E, XP-F, CS-A, CS-B, ERCC1, ERCC5; experiment: DNA damage profile by DNA repair gene; type: cell-based; conditions: symbols not defined
[7] = test system: Mechanism of Multi-drug Resistance; experiment: multidrug resistance: resistance by mechanism of multi-drug resistance

## COC(=O)C1=C(C(=O)OC)C23C=C(C)C1C2=C(C)C1(CC1)[C@@](C)(O)C3=O (stereo partly shown) [Illudofulvene Analog 0142]
[1]
  GI50: 447 nM
  Mean LD50 cytotoxic: 53,700 nM
  Mean TGI cytostatic: 4,667 nM

## CC1=C(COCCO)C2=C(C)C3(CC3)[C@@](C)(O)C(=O)C2=C1 [Analog 022]
MV522 Target Cell Line
  IC50: 680 ± 180 nM

## N.N.[Cl][Pt][Cl] [cisplatin]
[2]
  effect of c-myc (MYC) expression on cellular sensitivity: did not alter cellular sensitivity

## CC(=O)OCC1(C)C=C2C(=O)[C@](C)(O)C3(CC3)C(C)=C2C1O (stereo partly shown) [Illudofulvene Analog 0159]
[1]
  GI50: 117 nM
  Mean LD50 cytotoxic: 14,790 nM
  Mean TGI cytostatic: 2,090 nM

## CO[C@@]12[C@H](COC(N)=O)C3=C(C(=O)C(C)=C(N)C3=O)N1C[C@@H]1N[C@@H]12 [mitomycin C]
[2]
  effect of c-myc (MYC) expression on cellular sensitivity: did not alter cellular sensitivity
[2]; listed as Mitomycin C
  effect of c-myc (MYC) expression on cellular sensitivity: not sensitive

## CC1=C(CCC(=O)Oc2ccc3c(c2)CCC2C3CC[C@]3(C)C(O)CCC23)C2=C(C)C3(CC3)[C@@](C)(O)C(=O)C2=C1 (stereo partly shown) [Analog 108]
MCF7 (ER positive)
  IC50: 14100 ± 2800 nM

## CC1=C2C(=CC(C)(C)[C@@H]2O)C(=O)[C@](C)(O)C12CC2 [Illudin M, illudin M, reference compound]
[1]
  Mean LD50 cytotoxic: 291 nM

## CCOCC1=C(C)C=C2C(=O)[C@](C)(O)C3(CC3)C(C)=C21 [Illudofulvene Analog 0016]
[1]
  GI50: 102 nM
  Mean LD50 cytotoxic: 4,270 nM
  Mean TGI cytostatic: 1,070 nM

## CC1=C(CO)C2=C(C)C3(CC3)[C@@](C)(O)C(=O)C2=C1 [Analog 002]
[3]
  inhibitory effect on the nontarget 8392B cell line: no inhibitory effect
[4]
  sensitivity on expression of c-myc in the presence of 4HOT: become sensitive
[5]
  tumor regression: induce tumor regression
[6]; Gene XP-C
  DNA damage profile: 0
[6]; Gene XP-E
  DNA damage profile: 0
Myeloid leukemias
  Cytotoxicity? 2 hr incubation: Yes
  Cytotoxicity? 48 hr incubation: Yes
Breast carcinomas
  Cytotoxicity? 2 hr incubation: Yes
  Cytotoxicity? 48 hr incubation: Yes
Epidermoid
  Cytotoxicity? 2 hr incubation: Yes
  Cytotoxicity? 48 hr incubation: Yes
Ovarian
  Cytotoxicity? 2 hr incubation: Yes
  Cytotoxicity? 48 hr incubation: Yes
Lung carcinomas
  Cytotoxicity? 2 hr incubation: Yes
  Cytotoxicity? 48 hr incubation: Yes
Prostate carcinomas
  Cytotoxicity? 2 hr incubation: Yes
  Cytotoxicity? 48 hr incubation: Yes
B cell leukemias
  Cytotoxicity? 2 hr incubation: No
  Cytotoxicity? 48 hr incubation: Yes
T cell leukemias
  Cytotoxicity? 2 hr incubation: No
  Cytotoxicity? 48 hr incubation: Yes
Fibroblasts (normal)
  Cytotoxicity? 2 hr incubation: No
  Cytotoxicity? 48 hr incubation: Yes
[2]
  effect of c-myc (MYC) expression on cellular sensitivity: become sensitive
[2]; NIH3T3 MYC+ compared to parental c-myc null NIH3T3, based on decrease in cell count, FIG. 3
  increase in sensitivity conferred by expression of cellular c-myc: greater than 10 fold
[7]; Mechanism: BRCA status
  Resistance to Analog 001/Analog 002: No
[7]; Mechanism: Bcl-2 expression
  Resistance to Analog 001/Analog 002: No
[7]; Mechanism: DNA repair
  Resistance to Analog 001/Analog 002: No
[7]; Mechanism: Gp170/MDR1
  Resistance to Analog 001/Analog 002: No
[7]; Mechanism: Gp180/MRP
  Resistance to Analog 001/Analog 002: No
[7]; Mechanism: MGMT expression
  Resistance to Analog 001/Analog 002: No
[7]; Mechanism: MVP/LRP (vault)
  Resistance to Analog 001/Analog 002: No
[7]; Mechanism: Microtubulin alteration
  Resistance to Analog 001/Analog 002: No
[7]; Mechanism: Myc expression
  Resistance to Analog 001/Analog 002: No
[7]; Mechanism: P21 status
  Resistance to Analog 001/Analog 002: No
[7]; Mechanism: P53 status
  Resistance to Analog 001/Analog 002: No
[7]; Mechanism: Thiol content/GST pi
  Resistance to Analog 001/Analog 002: No
[7]; Mechanism: Topoisomerase I
  Resistance to Analog 001/Analog 002: No
[7]; Mechanism: Topoisomerase II
  Resistance to Analog 001/Analog 002: No
[7]; multi-medicant resistance phenotype, Bcl-2 over expression, p53 and p21/WAF1 mutations
  dependence of activity on common resistance mechanisms: independent

## CC[C@@]1(O)C(=O)OCc2c1cc1n(c2=O)Cc2cc3c(CN(C)C)c(O)ccc3nc2-1 [topotecan]
[2]
  effect of c-myc (MYC) expression on cellular sensitivity: did not alter cellular sensitivity
[2]; listed as Topotecan
  effect of c-myc (MYC) expression on cellular sensitivity: not sensitive

## CC[C@H](C)[C@H](NC(=O)[C@H]1CCCCN1C)C(=O)N(COC(=O)CC(C)C)[C@H](C[C@@H](OC(C)=O)c1nc(C(=O)N[C@@H](Cc2ccc(O)cc2)C[C@H](C)C(=O)O)cs1)C(C)C [Tubulysin A]
[1]
  Mean LD50 cytotoxic: >10,000 nM
